Experimental findings from patent US6872818B2, “Ammonium sulfate for neutralization of inhibitory effects” (QIAGEN GmbH, priority 2001, dated 2005) are described below.

The subject of one assay is RT-PCR reaction. The following applies: final concentration of 1 mM.
For a further assay, the system named is cDNA synthesis. Briefly: Reverse transcription / PCR in presence of SYBRGREEN dye. Format: biochemical. The following applies: final concentration of 100×. The procedure:
Reverse transcription reactions containing 0×, 0.001×, 0.01×, 0.1×, 1×, 10× and 100× SYBRGREEN® dye were performed. In order to quantify the generated cDNA after RT-reaction, 2 μl of the RT reaction was transferred to a 20 μl PCR mixture. PCR products were analyzed by gel-electrophoresis.

Experimental for RT-PCR reaction: In order to quantify the generated cDNA after RT reactions, 2 μl of each RT reaction mixture was transferred to a 20 μl PCR mixture.

On to `NCCCNCCCCNCCCN` [spermine], for which the “reduction in signals produced from an RT-PCR reaction” value in the assay with RT-PCR reaction is recorded as “up to 4 fold”.
Turning to `CCCN(CCCN(C)C)c1cc(/C=C2/Sc3ccccc3N2C)c2ccccc2[n+]1-c1ccccc1` [SYBRGREEN® dye], the cDNA synthesis entry in the assay on cDNA synthesis was “total loss of cDNA synthesis”.
